Columns and labels:
[1] = molecular target: T1, Rat mGlu2 (Rattus norvegicus, UniProt P31421); test: mGlu receptor in vitro assay, thallium flux through GIRK channels, rat mGlu2; type: cell-based; conditions: PAM potency with EC20 glutamate
T1 construct: expressed in transfected cells; host or cells: HEK-293 co-expressing GIRK channels
Experimental: (§1) Human Embryonic Kidney (HEK-293) cell lines co-expressing rat mGlu receptors 2, 3, 4, 6, 7 or 8 and G protein-coupled inwardly-rectifying potassium (GIRK) channels were grown in Growth Media containing 45% DMEM, 45% F-12, 10% FBS, 20 mM HEPES, 2 mM L-glutamine, antibiotic/antimycotic, non-essential amino acids, 700 μg/mL G418, and 0.6 μg/ml puromycin at 37° C. in the presence of 5% CO2. […] All cell culture reagents were purchased from Invitrogen Corp. (Carlsbad, CA) unless otherwise noted. Calcium assays were used to assess activity of compounds at mGlu1 and mGlu5, as previously described in Engers et al (J. Med. Chem. 2009, 52, 4115-4118). Calcium assays at mGlu3 were performed as described for mGlu5 with the exception that TREx293 mGlu3 Gα15 cells were treated with tetracycline at 20 ng/mL for 20 h prior to assay.
(§2) Compound activity at the group II (mGlu2 and mGlu3) and group III (mGlu4, mGlu6, mGlu7, and mGlu8) was assessed using thallium flux through GIRK channels, a method that has been described in detail. Briefly, cells were plated into 384-well, black-walled, clear-bottomed poly-D-lysine-coated plates at a density of 15,000 cells/20 μL/well in DMEM containing 10% dialyzed FBS, 20 mM HEPES, and 100 units/mL penicillin/streptomycin (assay media). Plated cells were incubated overnight at 37° C. in the presence of 5% CO2. The following day, the medium was exchanged from the cells to assay buffer [Hanks' balanced salt solution (Invitrogen) containing 20 mM HEPES, pH 7.3] using an ELX405 microplate washer (BioTek), leaving 20 μL/well, followed by the addition of 20 μL/well FluoZin2-AM (330 nM final concentration) indicator dye (Invitrogen; prepared as a stock in DMSO and mixed in a 1:1 ratio with Pluronic acid F-127) in assay buffer. Cells were incubated for 1 h at room temperature, and the dye exchanged to assay buffer using an ELX405, leaving 20 μL/well. Test compounds were diluted to 2 times their final desired concentration in assay buffer (0.3% DMSO final concentration). Agonists were diluted in thallium buffer [125 mM sodium bicarbonate (added fresh the morning of the experiment), 1 mM magnesium sulfate, 1.8 mM calcium sulfate, 5 mM glucose, 12 mM thallium sulfate, and 10 mM HEPES, pH 7.3] at 5 times the final concentration to be assayed. Cell plates and compound plates were loaded onto a kinetic imaging plate reader (FDSS 6000 or 7000; Hamamatsu Corporation, Bridgewater, NJ). Appropriate baseline readings were taken (10 images at 1 Hz; excitation, 470±20 nm; emission, 540±30 nm) and test compounds were added in a 20 μL volume and incubated for approximately 2.5 min before the addition of 10 μL of thallium buffer with or without agonist. After the addition of agonist, data were collected for approximately an additional 2.5 min. Data were analyzed using Excel (Microsoft Corp, Redmond, WA). The slope of the fluorescence increase beginning 5 s after thallium/agonist addition and ending 15 s after thallium/agonist addition was calculated, corrected to vehicle and maximal agonist control slope values, and plotted in using either XLfit (ID Business Solutions Ltd) or Prism software (GraphPad Software, San Diego, CA) to generate concentration-response curves. Potencies were calculated from fits using a four-point parameter logistic equation. For concentration-response curve experiments, compounds were serially diluted 1:3 into 10-point concentration response curves and were transferred to daughter plates using an Echo acoustic plate reformatter (Labcyte, Sunnyvale, CA). Test compounds were applied and followed by EC20 concentrations of glutamate.

[2] = molecular target: T2, Rat mGlu3 (Rattus norvegicus, UniProt P31422); test: mGlu receptor in vitro assay (thallium flux through GIRK channels / calcium assay), rat mGlu3; type: cell-based; conditions: PAM potency with EC20 glutamate
T2 construct: expressed in transfected cells; host or cells: HEK-293 co-expressing GIRK channels
Experimental: as §1, §2

T1 sequence (P31421 19-872): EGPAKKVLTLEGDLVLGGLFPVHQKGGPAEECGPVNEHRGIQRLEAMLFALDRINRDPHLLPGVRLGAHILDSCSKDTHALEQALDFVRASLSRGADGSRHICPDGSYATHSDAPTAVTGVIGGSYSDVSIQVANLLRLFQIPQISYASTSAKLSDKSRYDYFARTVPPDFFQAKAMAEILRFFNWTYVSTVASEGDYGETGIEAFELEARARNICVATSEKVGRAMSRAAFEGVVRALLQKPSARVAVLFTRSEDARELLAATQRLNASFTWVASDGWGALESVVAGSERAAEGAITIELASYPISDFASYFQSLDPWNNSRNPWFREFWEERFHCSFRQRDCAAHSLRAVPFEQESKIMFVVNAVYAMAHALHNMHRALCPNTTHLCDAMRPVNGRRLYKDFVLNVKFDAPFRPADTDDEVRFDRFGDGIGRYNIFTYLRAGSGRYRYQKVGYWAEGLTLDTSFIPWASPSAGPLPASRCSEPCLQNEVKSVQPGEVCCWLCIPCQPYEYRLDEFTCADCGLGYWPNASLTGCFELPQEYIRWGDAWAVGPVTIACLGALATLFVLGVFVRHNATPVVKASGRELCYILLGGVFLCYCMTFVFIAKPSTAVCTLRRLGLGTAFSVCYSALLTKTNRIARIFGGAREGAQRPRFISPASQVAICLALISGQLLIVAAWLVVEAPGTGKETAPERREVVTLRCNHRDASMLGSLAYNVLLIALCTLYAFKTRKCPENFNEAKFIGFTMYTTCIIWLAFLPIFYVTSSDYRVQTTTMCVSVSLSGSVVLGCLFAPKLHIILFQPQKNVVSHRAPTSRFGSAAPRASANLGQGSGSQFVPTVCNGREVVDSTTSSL
T2 sequence (P31422 23-879): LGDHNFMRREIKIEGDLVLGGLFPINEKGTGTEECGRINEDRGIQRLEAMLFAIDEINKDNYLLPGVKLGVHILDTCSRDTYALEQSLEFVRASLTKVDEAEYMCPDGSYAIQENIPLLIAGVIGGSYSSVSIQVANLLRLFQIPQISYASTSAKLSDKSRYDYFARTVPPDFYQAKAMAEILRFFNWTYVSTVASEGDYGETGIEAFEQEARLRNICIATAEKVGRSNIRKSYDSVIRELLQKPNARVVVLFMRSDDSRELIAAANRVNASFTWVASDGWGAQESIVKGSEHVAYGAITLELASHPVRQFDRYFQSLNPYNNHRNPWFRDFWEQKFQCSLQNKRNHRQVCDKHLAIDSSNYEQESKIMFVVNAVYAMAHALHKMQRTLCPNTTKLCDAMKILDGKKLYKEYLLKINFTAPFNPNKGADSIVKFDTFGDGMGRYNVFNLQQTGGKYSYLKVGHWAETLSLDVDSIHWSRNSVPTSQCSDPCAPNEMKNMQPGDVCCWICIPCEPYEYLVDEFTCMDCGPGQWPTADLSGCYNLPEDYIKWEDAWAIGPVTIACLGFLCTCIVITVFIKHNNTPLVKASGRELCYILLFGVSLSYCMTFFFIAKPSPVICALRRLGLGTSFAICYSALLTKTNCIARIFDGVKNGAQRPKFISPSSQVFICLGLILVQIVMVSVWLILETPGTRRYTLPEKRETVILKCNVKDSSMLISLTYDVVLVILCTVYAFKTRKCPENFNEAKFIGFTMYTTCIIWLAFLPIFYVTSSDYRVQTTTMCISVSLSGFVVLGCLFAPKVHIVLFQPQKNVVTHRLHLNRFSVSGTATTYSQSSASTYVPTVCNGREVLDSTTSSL

| Compound | EC50 [1] | EC50 [2] |
| --- | --- | --- |
| CCCC(=O)c1ccc(OCCS(=O)(=O)CCOc2cccc(C(=O)O)c2C)c(C)c1O [Example 38, 3-(2-{[2-(4-Butanoyl-3-hydroxy-2-methylphenoxy)ethyl]sulfonyl}ethoxy)-2-methylbenzoic acid] | > 10000 nM | > 30000 nM |
| COc1ccc(C(=O)O)cc1OCCCCOc1ccc(C(=O)Cc2ccccc2)c(O)c1C [compound 120, 3-(4-(3-Hydroxy-2-methyl-4-(2-phenylacetyl)phenoxy)butoxy)-4-methoxybenzoic acid] | 220 nM | 642 nM |
| Cc1c(OCc2cnc(-c3cccc(S(N)(=O)=O)c3)cn2)ccc(C(=O)CC(C)(C)C)c1O [compound 117, 3-(5-((4-(3,3-Dimethylbutanoyl)-3-hydroxy-2-methylphenoxy)methyl)pyrazin-2-yl)benzenesulfonamide] | > 30000 nM | > 30000 nM |
| CCCC(=O)c1ccc(OCCS(=O)(=O)CCOc2ccc(C(=O)O)c(Cl)c2)c(C)c1O [Example 37, 4-(2-{[2-(4-Butanoyl-3-hydroxy-2-methylphenoxy)ethyl]sulfonyl}ethoxy)-2-chlorobenzoic acid] | > 10000 nM | > 30000 nM |
| CCCC(=O)c1ccc(OCC[S+]([O-])CCOc2cccc(C(=O)O)c2C)c(C)c1O (centres unmarked) [Example 39, 3-(2-{[2-(4-Butanoyl-3-hydroxy-2-methylphenoxy)ethyl]sulfinyl}ethoxy)-2-methylbenzoic acid] | > 10000 nM | > 30000 nM |
| Cc1c(OCCCCCOc2cccc(C(=O)O)c2C)cccc1C(=O)O [compound 98, 3-[5-(3-Carboxy-2-methylphenoxy)pentyloxy]-2-methylbenzoic acid] | > 10000 nM | > 30000 nM |
| Cc1c(OCc2cccc(-c3cccc(NC(=O)NS(C)(=O)=O)c3)c2)ccc(C(=O)CC(C)(C)C)c1O [compound 88, N-((3′-((4-(3,3-Dimethylbutanoyl)-3-hydroxy-2-methylphenoxy)methyl)-[1,1′-biphenyl]-3-yl)carbamoyl)methanesulfonamide] | 1530 nM | > 10000 nM |
| Cc1c(SCc2cccc(-c3cccc(C(=O)O)c3)c2)ccc(C(=O)CC(C)(C)C)c1O [Example 165, 3′-(((4-(3,3-Dimethylbutanoyl)-3-hydroxy-2-methylphenyl)thio)methyl)-[1,1′-biphenyl]-3-carboxylic acid] | 337 nM | 2530 nM |
| COc1ccc(C(=O)O)cc1OCc1cccc(COc2ccc(C(=O)CC(C)(C)C)c(O)c2C)c1 [compound 90, 3-((3-((4-(3,3-Dimethylbutanoyl)-3-hydroxy-2-methylphenoxy)methyl)benzyl)oxy)-4-methoxybenzoic acid] | 322 nM | 923 nM |
| COc1ccc(NC(=O)NS(C)(=O)=O)cc1OCCCCOc1ccc(C(=O)CC(C)(C)C)c(O)c1C [compound 87, N-((3-(4-(4-(3,3-dimethylbutanoyl)-3-hydroxy-2-methylphenoxy)butoxy)-4-methoxyphenyl)carbamoyl)methanesulfonamide] | 1320 nM | 2390 nM |
| Cc1c(OCc2cccc(-c3cccc(S(N)(=O)=O)c3)c2)ccc(C(=O)CC(C)(C)C)c1O [Example 163, 3′-((4-(3,3-Dimethylbutanoyl)-3-hydroxy-2-methylphenoxy)methyl)-[1,1′-biphenyl]-3-sulfonamide] | 1360 nM | > 30000 nM |
| COc1ccc(C(=O)O)cc1OCC(C)CCOc1ccc(C(=O)CC(C)(C)C)c(O)c1C (centres unmarked) [Example 32, 3-{4-[4-(3,3-Dimethylbutanoyl)-3-hydroxy-2-methylphenoxy]-2-methylbutoxy}-4-methoxybenzoic acid] | 127 nM | 200 nM |

Second part, the molecule after the results:

| EC50 [1] | EC50 [2] | Compound |
| --- | --- | --- |
| > 10000 nM | 2140 nM | Cc1c(OCc2cnc(-c3cccc(C(=O)NS(C)(=O)=O)c3)cn2)ccc(C(=O)CC(C)(C)C)c1O [compound 126, 3-(5-((4-(3,3-Dimethylbutanoyl)-3-hydroxy-2-methylphenoxy)methyl)pyrazin-2-yl)-N-(methylsulfonyl)benzamide] |
| 1380 nM | > 10000 nM | Cc1c(Oc2cccc(C(=O)O)c2)ccc(C(=O)CC(C)(C)C)c1O [compound 97, 3-[4-(3,3-Dimethylbutanoyl)-3-hydroxy-2-methylphenoxy]benzoic acid] |
| 33 nM | > 10000 nM | CCCC(=O)c1ccc(OCC#CCOc2ccc(C(=O)O)c(Cl)c2)c(C)c1O [Example 43, 4-[4-(4-Butanoyl-3-hydroxy-2-methylphenoxy)but-2-ynyloxy]-2-chlorobenzoic acid] |
| 539 nM | 282 nM | Cc1c(OCc2cnc(-c3cccc(-c4nn[nH]n4)c3)cn2)ccc(C(=O)CC(C)(C)C)c1O [compound 122, 1-(4-((5-(3-(2H-Tetrazol-5-yl)phenyl)pyrazin-2-yl)methoxy)-2-hydroxy-3-methylphenyl)-3,3-dimethylbutan-1-one] |
| 128 nM | 810 nM | Cc1c(OCCCCNc2cccc(C(=O)O)c2)ccc(C(=O)CC(C)(C)C)c1O [compound 85, 3-((4-(4-(3,3-Dimethylbutanoyl)-3-hydroxy-2-methylphenoxy)butyl)amino)benzoic acid] |
| 2380 nM | 4670 nM | Cc1c(OCc2cnc(-c3cccc(NC(=O)NS(C)(=O)=O)c3)cn2)ccc(C(=O)CC(C)(C)C)c1O [compound 89, N-((3-(5-((4-(3,3-Dimethylbutanoyl)-3-hydroxy-2-methylphenoxy)methyl)pyrazin-2-yl)phenyl)carbamoyl)methanesulfonamide] |
| 4 nM | 2590 nM | CCCC(=O)c1ccc(OC/C=C/COc2ccc(C(=O)O)cc2OC)c(C)c1O [Example 6, (E)-4-((4-(4-Butyryl-3-hydroxy-2-methylphenoxy)but-2-en-1-yl)oxy)-3-methoxybenzoic acid] |
| 129 nM | 53 nM | COc1c(C(=O)O)cccc1-c1cnc(COc2ccc(C(=O)CC(C)(C)C)c(O)c2C)cn1 [compound 136, 3-(5-((4-(3,3-Dimethylbutanoyl)-3-hydroxy-2-methylphenoxy)methyl)pyrazin-2-yl)-2-methoxybenzoic acid] |
| 167 nM | > 30000 nM | CCCC(=O)c1ccc(OCC(=O)c2cccc(-c3cccc(C(=O)O)c3C)c2)c(C)c1O [compound 99, 3-{3-[2-(4-Butanoyl-3-hydroxy-2-methylphenoxy)acetyl]phenyl}-2-methylbenzoic acid] |
| 482 nM | 1020 nM | CCCC(=O)c1ccc(OCc2cnc(-c3cccc(C(=O)O)c3)cn2)c(C)c1O [compound 118, 3-(5-((4-Butyryl-3-hydroxy-2-methylphenoxy)methyl)pyrazin-2-yl)benzoic acid] |
| 916 nM | 616 nM | Cc1c(OCc2ccc(-c3cccc(C(=O)O)c3)nn2)ccc(C(=O)CC(C)(C)C)c1O [compound 119, 3-(6-((4-(3,3-Dimethylbutanoyl)-3-hydroxy-2-methylphenoxy)methyl)pyridazin-3-yl)benzoic acid] |
| 182 nM | 1170 nM | CCCC(=O)c1ccc(OCCCCCCOc2cccc(C(=O)O)c2C)c(C)c1O [Example 55, 3-[6-(4-Butanoyl-3-hydroxy-2-methylphenoxy)hexyloxy]-2-methylbenzoic acid] |
| 18 nM | 52 nM | COc1ccc(C(=O)O)cc1OCCOCCOc1ccc(C(=O)CC(C)(C)C)c(O)c1C [Example 1, 3-(2-(2-(4-(3,3-Dimethylbutanoyl)-3-hydroxy-2-methylphenoxy)ethoxy)ethoxy)-4-methoxybenzoic acid] |

Source: patent publication US20250179000A1 (Sanford Burnham Prebys Medical Discovery Institute, priority 2021, published 2025)
